Test in all cases: DTP human tumour cell line panel, 48 h
Assay [1] relates to ACHN.
Assay [2] deals with LOX IMVI.
In assay [3] the test system is M14.
In assay [4] the test system is SK-OV-3.
The test system of assay [5] is A549.
Assay [6] concerns HCT-116.
The subject of assay [7] is SK-MEL-2.
Assay [8] has as its system NCI-H23.
Assay [9] has as its system Malme-3M.
Assay [10] concerns SR.
In assay [11] the test system is HT-29.
For assay [12], the system named is OVCAR-3.
For assay [13], the system named is HOP-62.
The subject of assay [14] is MDA-N.
Assay [15] deals with BT-549.
For assay [16], the system named is CCRF-CEM.
The subject of assay [17] is RXF 393.
The subject of assay [18] is HL-60.

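Grown in 96-well plates, cells were treated for 48 hours with each compound at five concentrations. Insufficient inhibition: endpoint recorded as highest concentration tested. GI50 marks 50% less growth.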 The source made the active and inactive calls. Rule as the data show it: active = GI50 up to about 1.1 µM and inactive = higher.

Experimental findings from ChEMBL document CHEMBL1201862, “PubChem BioAssay data set” (2004) are described below.

As for `COC1=N[C@H](C(C)C)C(OC)=N[C@H]1Cc1ccc(C[C@@H]2N=C(OC)[C@@H](C(C)C)N=C2OC)s1`, the GI50 (usually the concentration at which growth is held to half of that of the control) in assay [1] was 29.4 µM (inactive); in [2], 48.6 µM (inactive); in [3], 36 µM (inactive); in [4] it was > 100 µM (inactive); in assay [5] it was 29 µM (inactive); in [6] it was 31 µM (inactive). Moreover, the GI50 in assay [7] was 14.3 µM (inactive); in assay [8], 25.1 µM (inactive); in assay [9] it was 22.6 µM (inactive); in assay [10] it was 19.5 µM (inactive); in [11], 26.2 µM (inactive); in assay [12], 58.9 µM (inactive). The GI50 was 54.8 µM (inactive) in [13], 49.3 µM (inactive) in assay [14], > 100 µM (inactive) in assay [15] and 19.5 µM (inactive) in assay [16].

Turning to `Cc1cc(C)c(C#N)c(SC(=S)NC(=O)c2ccccc2)n1`, the GI50 in [1] was > 100 µM (inactive); in assay [3] it was > 100 µM (inactive); in assay [5], > 100 µM (inactive); in [17], 3.95 µM (inactive); in assay [6], > 100 µM (inactive); in assay [7] it was > 100 µM (inactive). For the same molecule, the GI50 in [8], in [9], in assay [10], in assay [11], in [13] and in assay [14] was > 100 µM (inactive) each time. In addition, the GI50 in assay [15] and in [16] was > 100 µM (inactive) in each case.

With `O=C1c2scc(-c3ccc(F)cc3)c2-n2cccc21`, the GI50 in assay [1] is 39.7 µM (inactive); in assay [2] it was 24.6 µM (inactive); in assay [3], 29.5 µM (inactive); in assay [4] it was 40.6 µM (inactive); in assay [5], 56.5 µM (inactive); in [17], 26.1 µM (inactive). Also, the GI50 was 18.2 µM (inactive) in assay [6]; 35.2 µM (inactive) in assay [7]; 52.1 µM (inactive) in assay [9]; 11 µM (inactive) in assay [10]; 20.8 µM (inactive) in [11]; 54.1 µM (inactive) in assay [12]. Besides, the GI50 in assay [13] is 15.6 µM (inactive); in assay [14], 8.67 µM (inactive); in [15] it was 13.6 µM (inactive); in assay [16], 28.6 µM (inactive).

In the case of `O=C(NCCNCCO)N/N=C/c1ccc([N+](=O)[O-])cc1`, the GI50 in assay [1] is > 100 µM (inactive); in [3] it was > 100 µM (inactive); in [4], > 100 µM (inactive); in assay [5], > 100 µM (inactive); in [6] it was > 100 µM (inactive); in [7], 49.8 µM (inactive). Also, the GI50 in assay [8] was > 100 µM (inactive); in assay [9], 43.8 µM (inactive); in assay [10], > 100 µM (inactive); in assay [11], > 100 µM (inactive); in [12], > 100 µM (inactive); in [18], > 100 µM (inactive). For the same molecule, the GI50 in [13] is > 100 µM (inactive); in [14], 61.4 µM (inactive); in [15], > 100 µM (inactive); in [16], > 100 µM (inactive).

`COc1ccc(/C=N/n2c(Cc3ccccc3)n[nH]c2=O)c(OC)c1`: the GI50 in assay [1] was 30.4 µM (inactive); in [2] it was 27.5 µM (inactive); in assay [3], 51.8 µM (inactive); in [4] it was 29.2 µM (inactive); in assay [5], > 39.5 µM (inactive); in assay [17], 9.98 µM (inactive). In addition, the GI50 in assay [6] is 26.2 µM (inactive); in assay [7] it was > 59.8 µM (inactive); in [8] it was 29.4 µM (inactive); in assay [9] it was 59.2 µM (inactive); in [10], > 100 µM (inactive); in [11], 19.5 µM (inactive). Also, the GI50 was > 63.5 µM (inactive) in assay [12]; 20.9 µM (inactive) in assay [13]; > 100 µM (inactive) in assay [14]; 8.2 µM (inactive) in assay [15]; > 100 µM (inactive) in assay [16].

As to `N=C(NCc1ccccc1)N/N=C\c1ccnc2ccccc12`, the GI50 is 15.3 µM (inactive) in assay [1]; 11.5 µM (inactive) in [2]; 4.84 µM (inactive) in [3]; 15.5 µM (inactive) in assay [4]; 15 µM (inactive) in assay [5]; 9.73 µM (inactive) in [7]. For the same molecule, the GI50 in assay [8] was 15.7 µM (inactive); in [9], 10.2 µM (inactive); in assay [10], 2.09 µM (inactive); in assay [11] it was 11.2 µM (inactive); in assay [12] it was 11.6 µM (inactive); in assay [18], 14.3 µM (inactive). The GI50 in assay [13] was 16 µM (inactive); in assay [14] it was 10.9 µM (inactive); in [15] it was 4.56 µM (inactive); in [16], 1.87 µM (inactive).

On to `COC([C@@H](OC(=O)c1ccccc1)[C@H](OC(=O)c1ccccc1)C(O)COC(=O)c1ccccc1)n1cc(C)c(=O)[nH]c1=O` (stereo partly specified), for which the GI50 is 31.6 µM (inactive) in assay [1]; 15.1 µM (inactive) in assay [2]; 22.8 µM (inactive) in assay [3]; 40.6 µM (inactive) in assay [4]; 16.4 µM (inactive) in assay [5]; 14 µM (inactive) in assay [17]. The GI50 in [6] is 23.6 µM (inactive); in [7], 25.7 µM (inactive); in assay [8], 29.4 µM (inactive); in assay [9] it was 23.6 µM (inactive); in [10] it was 29.7 µM (inactive); in assay [11] it was 15.7 µM (inactive). Further, the GI50 was 20.3 µM (inactive) in [12], 35.3 µM (inactive) in assay [13], 30.9 µM (inactive) in assay [14] and 21.3 µM (inactive) in [15].

With `COc1ccc2nccc(SCC(=O)O)c2c1`, the GI50 in assay [1], in assay [2], in [3], in [5], in assay [17] and in assay [6] was > 100 µM (inactive) throughout. Further, the GI50 in [7], in [8], in assay [10], in [11], in assay [12] and in assay [18] was > 100 µM (inactive) in each case. In addition, the GI50 in [13], in assay [14], in assay [15] and in [16] was > 100 µM (inactive) each time.

Take `Cc1cccc2c(N)c3cccc(C(=O)NCC[N+](C)(C)Cc4ccc([N+](=O)[O-])s4)c3nc12`: the GI50 in assay [1] was 2.69 µM (inactive); in assay [2], 3.84 µM (inactive); in assay [3], 16.5 µM (inactive); in assay [4], 19.6 µM (inactive); in [5] it was 0.404 µM (active); in assay [17], 8.36 µM (inactive). Besides, the GI50 in assay [6] is 3.83 µM (inactive); in [7], 41 µM (inactive); in assay [8], 4.51 µM (inactive); in assay [9], 8.2 µM (inactive); in assay [10], 1.19 µM (inactive); in assay [11], 4.07 µM (inactive). The GI50 is 9.04 µM (inactive) in [12]; 4.21 µM (inactive) in assay [13]; 16 µM (inactive) in [14]; 33.5 µM (inactive) in [15]; 1.85 µM (inactive) in [16].

Take `O=Cc1ccc(-c2cc(C=O)c(-c3cccs3)[nH]2)s1`: the GI50 in assay [1] is 41.4 µM (inactive); in assay [2], 25.3 µM (inactive); in assay [3], 24 µM (inactive); in assay [4], 48.4 µM (inactive); in [5] it was 24.8 µM (inactive); in [17], 35.6 µM (inactive). Further, the GI50 in assay [6] is 22.8 µM (inactive); in [7], 46.2 µM (inactive); in assay [8], 37 µM (inactive); in assay [9] it was 46.7 µM (inactive); in assay [10] it was 4.05 µM (inactive); in assay [11] it was 25.1 µM (inactive). Further, the GI50 was 18.5 µM (inactive) in assay [12]; 21.3 µM (inactive) in assay [13]; 18.6 µM (inactive) in assay [14]; 28.2 µM (inactive) in assay [15]; 20 µM (inactive) in assay [16].

Regarding `Cc1ccc2c(c1)NC(c1ccc(C(=O)O)cc1)c1cccn1-2` (stereo unspecified), the GI50 was 19.3 µM (inactive) in assay [1]; > 100 µM (inactive) in assay [2]; 46.8 µM (inactive) in [3]; 22.4 µM (inactive) in [4]; 36.3 µM (inactive) in assay [5]; 19.7 µM (inactive) in assay [17]. Also, the GI50 in assay [6] was 47.9 µM (inactive); in assay [7] it was 43.9 µM (inactive); in assay [8], > 100 µM (inactive); in [10], > 100 µM (inactive); in assay [11] it was 78.3 µM (inactive); in [12] it was 47.3 µM (inactive). Besides, the GI50 was 24 µM (inactive) in assay [13], 75.2 µM (inactive) in assay [14], 61.2 µM (inactive) in assay [15] and > 100 µM (inactive) in assay [16].

Regarding `COC1OC(=O)C(OC)C(OC)C1OC` (stereo unspecified), the GI50 in assay [1], in assay [2], in assay [3], in assay [4], in assay [5] and in assay [6] was > 100 µM (inactive) throughout. For the same molecule, the GI50 in assay [7], in assay [10], in assay [11], in [12], in assay [18] and in assay [13] was > 100 µM (inactive) each time. Also, the GI50 in assay [14] is > 100 µM (inactive); in assay [15], 40.5 µM (inactive).
